Laboratory results taken from patent US12152030B2 (NOVOSTAR PHARMACEUTICALS, LTD., priority 2019, dated 2024).
Where a name gives a salt, the structure may show the parent alone.

Assays:
Phosphorylated eIF4E = test: Intracellular peIF4E signaling assay; assay type: cell-based; settings: 2 h; two hours incubation at 37° C.; read-out: peIF4E signaling cell assay IC50
Protocol: Phosphorylated eIF4E was determined using CisBio peIF4E assay kit (CisBio, catalog number 64EF4PEG). The cells were plated in a 96-well cell culture plate in a volume of 90 μL, and the number of cells per well was 5*10^4. The compounds (10×) were subjected to 3-fold serial dilution, added to the cell plate in a volume of 10 μL with the final DMSO concentration being 1%, and incubated at 37° C. for two hours. The cell plate was centrifuged at 300 g for 5 minutes, and the cell supernatant was carefully removed. The cell plate was immediately added with 50 μL of cell lysis buffer […] and incubated at 25° C. with shaking for at least 30 minutes. After homogenization by pipetting, 16 μL of cell lysate was transferred from the 96-well cell culture plate to a 384-well small-volume microwell plate. According to the kit instruction, an antibody mixture solution was prepared with a detection buffer, and was added in a volume of 4 μL to the 384-well small-volume microwell plate containing the cell lysate. The plate was covered with a plate sealer, incubated overnight at 25° C., and was read for fluorescence emission at two different wavelengths (665 nm and 615 nm) on the EnVision microplate reader counter. The emission ratio was imported into a GraphPadPrism software to fit the compound concentration (IC50) required for 50% inhibition of enzyme activity.
In this respect, IC50 values which are less than 0.05 μM were marked as “+++”, which are from 0.05 to 1.0 μM were marked as “++”, and which are greater than 1.0 and up to 100 μM were marked as “+”, and NA meant “not detected”.

MNK1 = MNK1 (Homo sapiens, UniProt Q9BUB5); test: MNK biological enzyme assay (HTRF kinase assay), MNK1; assay type: biochemical; design: purchased ThermoFisher PV6023; settings: 3 ng/ul MNK1, 1 μM STK1 peptide, 100 μM ATP
Protocol: (§1) A HTRF kinase assay kit (Cisbio, catalog number 62ST1PEB) was used to determine the MNK inhibitory activity of the compounds. All kinase reactions were performed in the reaction buffer (provided in the kit). The final MNK1 reaction involved 3 ng/ul recombinant MNK1 (ThermoFisher, PV6023), 1 μM MNK substrate peptide STK1 (provided in the kit), 100 μM ATP, and different concentrations of the inhibitory compounds of interest. The final MNK2 reaction involved 1 ng/μl recombinant MNK2 (ThermoFisher, PV5607), 1 μM MNK substrate peptide STK1 (provided in the kit), 100 μM ATP, and different concentrations of the inhibitory compounds of interest. The final DMSO concentration in each of the reactions was 1%.
(§2) The kinase reaction was performed in a final volume of 10 μl in a 384-well white flat-bottomed polystyrene plate. The MNK1/2 enzyme was pre-incubated with the compound and substrate peptide for 5 minutes, and then ATP was added thereto. After addition of ATP, the kinase reaction was incubated at 25° C. for 120 minutes or 60 minutes. The reaction was subsequently terminated by adding 5 μl of EU3+ substrate antibody detection reagent and 5 μl of XL665 detection reagent, and incubating for another 60 minutes. The luminescent signal was detected with an EnVision microplate reader counter (Perkin Elmer), and the signal from 10-point dilution series of the compounds was used to calculate the compound concentration (IC50) required to achieve 50% inhibition of enzyme activity.
(§3) In this respect, IC50 values which are less than 0.01 μM were marked as “+++”, which are from 0.01 to 0.1 μM were marked as “++”, and which are greater than 0.1 and up to 10.0 μM were marked as “+”, and NA meant “not detected”.

MNK2 = MNK2 (Homo sapiens, UniProt Q9HBH9); test: MNK biological enzyme assay (HTRF kinase assay), MNK2; assay type: biochemical; design: purchased ThermoFisher PV5607; settings: 1 ng/μl MNK2, 1 μM STK1 peptide, 100 μM ATP
Protocol: as §1, §2, §3

Sequence of MNK2 (Q9HBH9 whole entry): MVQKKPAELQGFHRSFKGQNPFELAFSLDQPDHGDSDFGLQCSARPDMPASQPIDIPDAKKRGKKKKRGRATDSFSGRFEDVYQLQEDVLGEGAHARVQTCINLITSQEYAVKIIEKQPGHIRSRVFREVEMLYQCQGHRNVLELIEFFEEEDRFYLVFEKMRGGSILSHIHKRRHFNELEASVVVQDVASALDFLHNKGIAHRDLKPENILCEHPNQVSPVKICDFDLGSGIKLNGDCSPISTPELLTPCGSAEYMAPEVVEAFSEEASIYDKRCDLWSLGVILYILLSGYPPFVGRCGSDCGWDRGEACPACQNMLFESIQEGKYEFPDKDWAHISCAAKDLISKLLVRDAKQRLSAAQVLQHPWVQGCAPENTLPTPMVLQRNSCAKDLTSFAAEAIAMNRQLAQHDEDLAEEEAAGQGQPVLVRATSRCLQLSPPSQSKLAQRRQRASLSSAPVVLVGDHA
Sequence of MNK1 (Q9BUB5 whole entry): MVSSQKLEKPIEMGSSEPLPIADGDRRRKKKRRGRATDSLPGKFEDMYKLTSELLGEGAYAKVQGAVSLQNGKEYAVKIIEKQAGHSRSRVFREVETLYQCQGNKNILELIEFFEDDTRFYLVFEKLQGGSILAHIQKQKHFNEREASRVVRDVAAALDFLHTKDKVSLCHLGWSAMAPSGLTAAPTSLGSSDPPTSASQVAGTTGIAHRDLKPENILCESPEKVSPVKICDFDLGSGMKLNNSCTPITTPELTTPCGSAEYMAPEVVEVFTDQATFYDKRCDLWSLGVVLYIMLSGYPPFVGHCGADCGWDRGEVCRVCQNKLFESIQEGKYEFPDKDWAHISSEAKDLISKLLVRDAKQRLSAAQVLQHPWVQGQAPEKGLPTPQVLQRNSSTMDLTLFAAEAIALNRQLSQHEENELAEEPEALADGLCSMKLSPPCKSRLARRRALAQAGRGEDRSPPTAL

Structure (SMILES)	IC50 (Phosphorylated eIF4E) [nM]	IC50 (MNK1) [nM]	IC50 (MNK2) [nM]
Cc1c2n(c(=O)c3[nH]c4cc(N)ncc4c(=O)c13)C(C)(C)NC2=O [Compound 3]	50 to 1000	10 to 100	10 to 100
Cc1c2c(c(=O)n3c1C(=O)NC31CCCC1)Nc1cc(N)ncc1C2 [Compound 6, 8′-amino-12′-methyl-6′,11′-dihydro-2′H-spiro[cyclopentane-1,3′-imidazo[1′,5′:1,6]pyrido[3,4-b][1,6]naphthyridine]-1′,5′-dione]	< 50	10 to 100	< 10
Cc1c2n(c(=O)c3[nH]c4cc(N)ncc4c(=O)c13)C(C)(c1ccccc1)NC2=O (centres unmarked) [Compound 7, 8-amino-3,12-dimethyl-3-phenyl-2,3-dihydroimidazo[1′,5′:1,6]pyrido[3,4-B][1,6]naphthyridine-1,5,11(6H)-trione]	1000 to 100000	10 to 100	10 to 100
Cc1c2c(c(=O)n3c1C(=O)NC3(C)c1cccc(F)c1)Nc1cc(N)ncc1C2 (centres unmarked) [Compound 10, hydrochloride]	50 to 1000	10 to 100	10 to 100
Cc1cc2c(cn1)Cc1c(C)c3n(c(=O)c1N2)C1(CCCCC1)NC3=O [Compound 12, 8,12-dimethyl-6,11-dihydro-1H-spiro[cyclohexane-1,3-imidazo[1,5:1,6]pyrido[3,4-b][1,6]naphthyridine]-1,5(2H)-dione hydrochloride]	50 to 1000	–	–
Cc1c2n(c(=O)c3[nH]c4cc(N)ncc4c(=O)c13)C1(CCN(C)CC1)NC2=O [Compound 17, 8-amino-1′,12-dimethyl-2H-spiro[imidazo[1′,5′:1,6]pyrido[3,4-B][1,6]naphthyridine-3,4′-piperidine]-1,5,11(6H)-trione]	1000 to 100000	–	–
Cc1c2c(c(=O)n3c1C(=O)NC31CCN(C)CC1)Nc1cc(N)ncc1C2 [Compound 18, 8-amino-1′,12-dimethyl-6,11-dihydro-2H-spiro[imidazo[1′,5′:1,6]pyrido[3,4-b][1,6]naphthyridine-3,4′-piperidine]-1,5-dione]	50 to 1000	–	–
C=CC1(CCO)NC(=O)c2c(C)c3c(=O)c4cnc(N)cc4[nH]c3c(=O)n21 (centres unmarked) [Compound 19, 8-amino-3-(2-hydroxyethyl)-12-methyl-3-ethenyl-2,3-dihydroimidazo[1′,5′:1,6]pyrido[3,4-b][1,6]naphthyridine-1,5,11(6H)-trione]	1000 to 100000	–	–
Cl.[2H]C1([2H])c2cnc(N)cc2Nc2c1c(C)c1n(c2=O)C2(CCCCC2)NC1=O [Compound 20, 8′-amino-12′-methyl-6′,11′-dihydro-2′H-spiro[cyclohexane-1,3′-imidazo[1′,5′:1,6]pyrido[3,4-b][1,6]naphthyridine]-1′,5′-dione-11′,11′-d2 hydrochloride]	< 50	10 to 100	< 10
Cc1c2c(c(=O)n3c1C(=O)NC31CCCCC1)Nc1cc(NC(=O)C(C)C)ncc1C2 [Compound 24, N-(12methyl-1,5-dioxo-1,5,6,11-tetrahydro-2H-spiro[cyclohexane-1,3-imidazole[1,5:1,6]pyrido[3,4b][1,6]naphthyridine]-8-yl)isobutyramide]	< 50	< 10	< 10

The remaining lines, values ahead:

IC50 (Phosphorylated eIF4E) [nM]	IC50 (MNK1) [nM]	IC50 (MNK2) [nM]	Structure (SMILES)
< 50	10 to 100	10 to 100	Cc1c2n(c(=O)c3[nH]c4cc(N)ncc4c(=O)c13)C1(CCCCC1)NC2=O [Compound 1, 8′-amino-12′-methyl-2′H-spiro[cyclohexane-1,3′-imidazo[1′,5′:1,6]pyrido[3,4-b][1,6]naphthyridine]-1′,5′,11′(6′H)-trione]
50 to 1000	10 to 100	10 to 100	Cc1c2c(c(=O)n3c1C(=O)NC3(C)C)Nc1cc(N)ncc1C2 [Compound 4, 8-amino-3,3,12-trimethyl-2,3,6,11-tetrahydroimidazo[1,5′:1.6]pyrido[3,4-b][1,6]naphthyridine derivative-1,5-dione hydrochloride]
< 50	< 10	< 10	Cc1c2n(c(=O)c3[nH]c4cc(N)ncc4c(=O)c13)C1(CCCC1)NC2=O [Compound 5, 8-amino-12-methyl-2H-spiro[cyclopentane-1,3-imidazo[1,5:1,6]pyridine[3,4-b][1,6]naphthyridine]-1,5,11(6H)-trione]
50 to 1000	10 to 100	–	Cc1c2c(c(=O)n3c1C(=O)NC3(C)c1ccccc1)Nc1cc(N)ncc1C2 (centres unmarked) [Compound 8, 8-amino-3,12-dimethyl-3-phenyl-2,3,6,11-tetrahydroimidazo[l′,5′:1,6]pyrido[3,4-b][1,6]naphthyridine-1,5-dione, hydrochloride]
50 to 1000	10 to 100	–	Cc1c2n(c(=O)c3[nH]c4cc(N)ncc4c(=O)c13)C(C)(c1cccc(F)c1)NC2=O (centres unmarked) [Compound 9, 8-amino-3-(3-fluorophenyl)-3,12-dimethyl-2,3-dihydroimidazo[1′,5′:1,6]pyrido[3,4-b][1,6]naphthopyridin-1,5,11(6H)-trione]
1000 to 100000	–	–	Cc1cc2[nH]c3c(=O)n4c(c(C)c3c(=O)c2cn1)C(=O)NC41CCCCC1 [Compound 11, 8′,12′-dimethyl-1′H-spiro[cyclohexane-1,3′-imidazo[1′,5′:1,6]pyrido[3,4-b][1,6]naphthyridine]-1′,5′,11′(2′H,6′H)-trione]
50 to 1000	10 to 100	10 to 100	Cc1c2n(c(=O)c3[nH]c4cc(N)ncc4c(=O)c13)C(C)(c1cccc(Cl)c1)NC2=O (centres unmarked) [Compound 13, 8-amino-3-(3-chlorophenyl)-3,12-dimethyl-2,3-dihydroimidazole[1′,5′:1,6]pyrido[3,4-b][1,6]naphthopyridin-1,5,11(6H)-trione]
50 to 1000	–	–	Cc1c2c(c(=O)n3c1C(=O)NC3(C)c1cccc(Cl)c1)Nc1cc(N)ncc1C2 (centres unmarked) [Compound 14, 8-amino-3-(3-chlorophenyl)-3,12-dimethyl-2,3,6,11-tetrahydroimidazole[1′,5′:1,6]pyrido[3,4-b][1,6]naphthyridine-1,5-dione hydrochloride]
50 to 1000	–	–	Cc1c2n(c(=O)c3[nH]c4ccncc4c(=O)c13)C1(CCCCC1)NC2=O [Compound 15, 12′-methyl-1′H-spiro[cyclohexane-1,3′-imidazo[1′,5′:1,6]pyrido[3,4-b][1,6]naphthyridine]-1′,5′,11′(2′H,6′H)-trione]
< 50	10 to 100	< 10	Cc1c2c(c(=O)n3c1C(=O)NC31CCCCC1)Nc1ccncc1C2 [Compound 16, 12-methyl-6,11-dihydro-1H-spiro[cyclohexane-1,3-imidazo[1,5:1,6]pyrido[3,4-b][1,6]naphthyridine]-1,5(2H)-dione hydrochloride]
< 50	10 to 100	10 to 100	CNc1cc2c(cn1)Cc1c(C)c3n(c(=O)c1N2)C1(CCCCC1)NC3=O [Compound 22, 12′-methyl-8′-(methylamino)-6′,11′-dihydro-1′H-spiro[cyclohexane-1,3′-imidazo[1′,5′:1,6]pyrido[3,4-b][1,6]naphthopyridine]-1′,5′(2′H)-dione hydrochloride]
< 50	< 10	< 10	Cc1c2c(c(=O)n3c1C(=O)NC31CCCCC1)Nc1cc(NC(=O)OC(C)(C)C)ncc1C2 [Compound 23, Tert-Butyl (12-methyl-1,5-dioxo-1,5,6,11-tetrahydro-2H-spiro[cyclohexane-1,3-imidazole[1,5:1,6]pyrido[3,4b][1,6]naphthalene]-8-yl)aminoformate]
